Measurements as given in PubChem BioAssay AID2060613 (Molecular Pharmacology Branch, DTP, NCI, 2025).
“And” between values parts separate entries of the source, which are not always exact repeats. Identical values can stand only once.

Tested on: 233499-124-R-J3-PDC complex spheroid viability
Assay: Anticancer human tumor 233499-124-R-J3-PDC patient-derived colon adenocarcinoma cell line growth inhibition [CLK]
Conditions: for viability, T/C: stronger effect = lower value; active means viability on the fitted dose curve at most 10% of control; inactive means the rest
How it was run: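 Patient-derived tumor cells grown as complex spheroids with HUVEC endothelial cells and mesenchymal stem cells, treated with drug combinations. Concentrations descend in half-log steps from near clinical Cmax, or from 10 microM if Cmax unknown.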

[1] = curve of first compound, second compound 0.0316 µM
[2] = curve of first compound, second compound 0.1 µM
[3] = curve of first compound, second compound 0.316 µM
[4] = curve of first compound, second compound 1 µM
[5] = curve of first compound, second compound 3.16 µM
[6] = curve of first compound, second compound 10 µM
[7] = second compound 0.0316 µM, first compound 0.0316 µM
[8] = second compound 0.0316 µM, first compound 0.1 µM
[9] = second compound 0.0316 µM, first compound 0.316 µM
[10] = second compound 0.0316 µM, first compound 1 µM
[11] = second compound 0.0316 µM, first compound 3.16 µM
[12] = second compound 0.0316 µM, first compound 10 µM
[13] = second compound 0.1 µM, first compound 0.0316 µM
[14] = second compound 0.1 µM, first compound 0.1 µM
[15] = second compound 0.1 µM, first compound 0.316 µM
[16] = second compound 0.1 µM, first compound 1 µM
[17] = second compound 0.1 µM, first compound 3.16 µM
[18] = second compound 0.1 µM, first compound 10 µM
[19] = second compound 0.316 µM, first compound 0.0316 µM
[20] = second compound 0.316 µM, first compound 0.1 µM
[21] = second compound 0.316 µM, first compound 0.316 µM
[22] = second compound 0.316 µM, first compound 1 µM
[23] = second compound 0.316 µM, first compound 3.16 µM
[24] = second compound 0.316 µM, first compound 10 µM
[25] = second compound 1 µM, first compound 0.0316 µM
[26] = second compound 1 µM, first compound 0.1 µM
[27] = second compound 1 µM, first compound 0.316 µM
[28] = second compound 1 µM, first compound 1 µM
[29] = second compound 1 µM, first compound 3.16 µM
[30] = second compound 1 µM, first compound 10 µM
[31] = second compound 3.16 µM, first compound 0.0316 µM
[32] = second compound 3.16 µM, first compound 0.1 µM
[33] = second compound 3.16 µM, first compound 0.316 µM
[34] = second compound 3.16 µM, first compound 1 µM
[35] = second compound 3.16 µM, first compound 3.16 µM
[36] = second compound 3.16 µM, first compound 10 µM
[37] = second compound 10 µM, first compound 0.0316 µM
[38] = second compound 10 µM, first compound 0.1 µM
[39] = second compound 10 µM, first compound 0.316 µM
[40] = second compound 10 µM, first compound 1 µM
[41] = second compound 10 µM, first compound 3.16 µM
[42] = second compound 10 µM, first compound 10 µM
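Further: spheroids exposed to the drug combinations for seven days.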
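Wherever viability, T/C is given: percent viability relative to DMSO vehicle control wells taken as 100%.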

O=C(c1cc(Cc2n[nH]c(=O)c3ccccc23)ccc1F)N1CCN(C(=O)C2CC2)CC1 + CN1CCN(c2cc(C(=O)Nc3cc4cc(-c5cnn(C)c5)ccc4cn3)ccn2)CC1
> 10000 nM: IC50 [1] | IC50 [2] | IC50 [3]
active: viability, T/C [25] 3.57% | viability, T/C [26] 2.51% | viability, T/C [27] 2.71% | viability, T/C [28] 16.4% | viability, T/C [29] 3.61% | viability, T/C [30] 1.27% | viability, T/C [31] 0.91% | viability, T/C [32] 0.94% | viability, T/C [33] 0.75% | viability, T/C [34] 0.71% | viability, T/C [35] 0.8% | viability, T/C [36] 1.09% | viability, T/C [37] 0.64% | viability, T/C [38] 0.56% | viability, T/C [39] 0.6% | viability, T/C [40] 4.25% | viability, T/C [41] 0.89% | viability, T/C [42] 1.84%
< 31.6 nM: IC50 [4] | IC50 [5] | IC50 [6]
inactive: viability, T/C [7] 79.9% | viability, T/C [8] 98.1% | viability, T/C [9] 96.8% | viability, T/C [10] 108% | viability, T/C [11] 99.4% | viability, T/C [12] 93.2% | viability, T/C [13] 98.6% | viability, T/C [14] 105% | viability, T/C [15] 103% | viability, T/C [16] 109% | viability, T/C [17] 110% | viability, T/C [18] 82.4% | viability, T/C [19] 103% | viability, T/C [20] 99.4% | viability, T/C [21] 103% | viability, T/C [22] 93.8% | viability, T/C [23] 96.8% | viability, T/C [24] 87.1%

NC(=O)C(=Cn1cnc(-c2cc(C(F)(F)F)cc(C(F)(F)F)c2)n1)c1cncnc1
inactive: viability, T/C (compound 0.00949 µM) 79.8% and 85.7% | viability, T/C (compound 0.03 µM) 92.3% and 86.1% | viability, T/C (compound 0.0949 µM) 94.4% and 92.1% | viability, T/C (compound 0.3 µM) 70.9% and 61.6% | viability, T/C (compound 0.949 µM) 57.1% and 48%
1120 nM and 750 nM: IC50 (curve of compound)
19.2% and 7.79%: viability, T/C (compound 3 µM)

CC(C)CC(NC(=O)C(Cc1ccccc1)NC(=O)c1cnccn1)B(O)O (centres undefined) + CN1CCN(c2cc(C(=O)Nc3cc4cc(-c5cnn(C)c5)ccc4cn3)ccn2)CC1
5.01 nM: IC50 [2]
< 0.949 nM: IC50 [4] | IC50 [5] | IC50 [6]
5.27 nM: IC50 [3]
inactive: viability, T/C (second compound 0.0316 µM, first compound 0.000949 µM) 97.8% | viability, T/C (second compound 0.0316 µM, first compound 0.003 µM) 113% | viability, T/C (second compound 0.1 µM, first compound 0.000949 µM) 86.1% | viability, T/C (second compound 0.1 µM, first compound 0.003 µM) 93.5% | viability, T/C (second compound 0.316 µM, first compound 0.000949 µM) 96.5% | viability, T/C (second compound 0.316 µM, first compound 0.003 µM) 99%
5.53 nM: IC50 [1]
active: viability, T/C (second compound 0.0316 µM, first compound 0.00949 µM) 0.79% | viability, T/C (second compound 0.0316 µM, first compound 0.03 µM) 0.19% | viability, T/C (second compound 0.0316 µM, first compound 0.0949 µM) 0.17% | viability, T/C (second compound 0.0316 µM, first compound 0.3 µM) 0.17% | viability, T/C (second compound 0.1 µM, first compound 0.00949 µM) 0.23% | viability, T/C (second compound 0.1 µM, first compound 0.03 µM) 0.2% | viability, T/C (second compound 0.1 µM, first compound 0.0949 µM) 0.18% | viability, T/C (second compound 0.1 µM, first compound 0.3 µM) 0.17% | viability, T/C (second compound 0.316 µM, first compound 0.00949 µM) 0.2% | viability, T/C (second compound 0.316 µM, first compound 0.03 µM) 0.17% | viability, T/C (second compound 0.316 µM, first compound 0.0949 µM) 0.18% | viability, T/C (second compound 0.316 µM, first compound 0.3 µM) 0.17% | viability, T/C (second compound 1 µM, first compound 0.000949 µM) 1.6% | viability, T/C (second compound 1 µM, first compound 0.003 µM) 0.82% | viability, T/C (second compound 1 µM, first compound 0.00949 µM) 0.17% | viability, T/C (second compound 1 µM, first compound 0.03 µM) 0.15% | viability, T/C (second compound 1 µM, first compound 0.0949 µM) 0.54% | viability, T/C (second compound 1 µM, first compound 0.3 µM) 0.13% | viability, T/C (second compound 3.16 µM, first compound 0.000949 µM) 0.76% | viability, T/C (second compound 3.16 µM, first compound 0.003 µM) 0.84% | viability, T/C (second compound 3.16 µM, first compound 0.00949 µM) 0.17% | viability, T/C (second compound 3.16 µM, first compound 0.03 µM) 0.18% | viability, T/C (second compound 3.16 µM, first compound 0.0949 µM) 0.19% | viability, T/C (second compound 3.16 µM, first compound 0.3 µM) 0.33% | viability, T/C (second compound 10 µM, first compound 0.000949 µM) 0.45% | viability, T/C (second compound 10 µM, first compound 0.003 µM) 0.34% | viability, T/C (second compound 10 µM, first compound 0.00949 µM) 0.24% | viability, T/C (second compound 10 µM, first compound 0.03 µM) 0.24% | viability, T/C (second compound 10 µM, first compound 0.0949 µM) 0.22% | viability, T/C (second compound 10 µM, first compound 0.3 µM) 0.19%

CC1(C)CCC(CN2CCN(c3ccc(C(=O)NS(=O)(=O)c4ccc(NCC5CCOCC5)c([N+](=O)[O-])c4)c(Oc4cnc5[nH]ccc5c4)c3)CC2)=C(c2ccc(Cl)cc2)C1
inactive: viability, T/C (compound 0.0316 µM) 99.6% and 96.4% | viability, T/C (compound 0.1 µM) 98.9% and 93.4% | viability, T/C (compound 0.316 µM) 99.4% and 96.6% | viability, T/C (compound 1 µM) 95.5% and 98.7% | viability, T/C (compound 3.16 µM) 111% and 105% | viability, T/C (compound 10 µM) 12.8% and 25.5%
6150 nM and 6780 nM: IC50 (curve of compound)

COc1cccc2c1C(=O)c1c(O)c3c(c(O)c1C2=O)CC(O)(C(=O)CO)CC3OC1CC(N)C(O)C(C)O1 (centres undefined)
2610 nM and 781 nM: IC50 (curve of compound)
inactive: viability, T/C (compound 0.0316 µM) 92.5% and 101% | viability, T/C (compound 0.1 µM) 99% and 94.5% | viability, T/C (compound 0.316 µM) 81.5% and 67.5% | viability, T/C (compound 1 µM) 72.2% and 48.1% | viability, T/C (compound 3.16 µM) 45.6% and 21.7% | viability, T/C (compound 10 µM) 17.3% and 17.5%

Nc1ccn(C2OC(CO)C(O)C2(F)F)c(=O)n1 (centres undefined) + CN1CCN(c2cc(C(=O)Nc3cc4cc(-c5cnn(C)c5)ccc4cn3)ccn2)CC1
168 nM: IC50 [3]
inactive: viability, T/C [7] 80% | viability, T/C [8] 95.4% | viability, T/C [9] 49.6% | viability, T/C [10] 34.2% | viability, T/C [11] 37% | viability, T/C [12] 27.2% | viability, T/C [13] 101% | viability, T/C [14] 92.1% | viability, T/C [15] 29.6% | viability, T/C [16] 19.2% | viability, T/C [17] 23.2% | viability, T/C [18] 21.4% | viability, T/C [19] 101% | viability, T/C [20] 71% | viability, T/C [21] 24.7%
< 31.6 nM: IC50 [4] | IC50 [5] | IC50 [6]
313 nM: IC50 [1]
217 nM: IC50 [2]
active: viability, T/C [22] 7.57% | viability, T/C [23] 12.1% | viability, T/C [24] 5.63% | viability, T/C [25] 1.31% | viability, T/C [26] 0.86% | viability, T/C [27] 0.41% | viability, T/C [28] 1.47% | viability, T/C [29] 0.37% | viability, T/C [30] 0.46% | viability, T/C [31] 0.7% | viability, T/C [32] 0.69% | viability, T/C [33] 0.53% | viability, T/C [34] 0.46% | viability, T/C [35] 0.48% | viability, T/C [36] 0.62% | viability, T/C [37] 0.45% | viability, T/C [38] 0.5% | viability, T/C [39] 0.68% | viability, T/C [40] 0.58% | viability, T/C [41] 0.44% | viability, T/C [42] 0.38%

C=CC(=O)Nc1cc(Nc2nccc(-c3cn(C)c4ccccc34)n2)c(OC)cc1N(C)CCN(C)C
inactive: viability, T/C (compound 0.000949 µM) 92.5% and 102% | viability, T/C (compound 0.003 µM) 91.5% and 98.6% | viability, T/C (compound 0.00949 µM) 99.7% and 103% | viability, T/C (compound 0.03 µM) 96.9% and 87.8% | viability, T/C (compound 0.0949 µM) 86% and 93.7% | viability, T/C (compound 0.3 µM) 76.8% and 82.2%
> 300 nM: IC50 (curve of compound)
